# Reference: patent publication US9072757B2, “Combination of an HMG-CoA reductase inhibitor and a farnesyl-pyrophosphate synthase inhibitor for the treatment of diseases related to the persistence and/or accumulation of prenylated proteins” (UNIVERSITE DE LA MEDITERRANEE AIX-MARSEILLE II, priority 2006, dated 2015)
# Tests used:
# prelamin A = assay: Immunohistochemistry (immunomarking): level of prelamin A in healthy reference cells; type: cell-based, human; details: Pravastatin 100 μM for 12 hours, zoledronate 20 μM for 6 hours; in combination or alone (FIG. 3)
# Experimental: (§1) The cell lines are either reference fibroblasts AG16409 from the Coriell Institute, or fibroblasts from biopsies of patients suffering from Restrictive Dermopathy. They are cultivated at 37° C. in 5% CO2 in a P2 room.
# (§2) A cell culture is trypsinised and the cells counted on a Neubauer cell.
# (§3) Labtech-style culture wells (Nunc, ref 177399) are seeded, at the rate of 5×10^4 cells per well.
# (§4) The complete culture medium is supplemented by the treatment or treatments (statin, NBP, or both), and the cells cultivated for an ad hoc time.
# (§5) The cells are fixed in a paraformaldehyde 4% solution (in PBS) for 10 minutes at room temperature.
# After defrosting, the cells are incubated for 5 minutes at room temperature in a humid chamber in 50 μl of a permeabilisation solution:
# (§6) The primary antibody is diluted to 1/100th in 50 μl of incubation solution and put in contact with the cells for 1 hour at room temperature in a humid chamber.
# Incubation with the secondary antibody takes place for 1 hour in 50 ml of incubation solution at room temperature in a humid chamber. […]
# (§7) The cells are immersed in a drop of VectaShield (Vector), covered with an object-covering blade and observed on a fluorescence microscope (Leica DMR, Leica Microsystems), equipped with a coolSNAP (Princeton) camera system.
# healthy cells = assay: Immunohistochemistry: deformed nuclei / toxicity on healthy reference cells; type: cell-based, human; details: Pravastatin 100 μM for 12 hours, zoledronate 20 μM for 6 hours; in combination or alone (FIG. 3)
# Experimental: as §1, §2, §3, §4, §5, §6
# Incubation with the secondary antibody takes place for 1 hour in 50 ml of incubation solution at room temperature in a humid chamber. The secondary antibodies are of two types: • Anti-mouse donkey, Jackson Immunoresearch, dilution to 1/100th • Anti-goat donkey, Jackson Immunoresearch, dilution to 1/200th […]
# as §7
Compound,level of prelamin A produced in treated healthy cells (prelamin A) [%],level of deformed nuclei (the sign of toxicity on the healthy cells) (healthy cells)
CC[C@H](C)C(=O)O[C@H]1C[C@H](O)C=C2C=C[C@H](C)[C@H](CC[C@@H](O)C[C@@H](O)CC(=O)O)[C@H]21 [pravastatin],25,approximately 12%
(1-hydroxy-2-imidazol-1-yl-phosphono-ethyl)phosphonic acid [zoledronate],15,–
